# Experimental data reported in patent publication US8278072B1, “Method for synthesis of sialylated products using reversible sialylation” (Health Research, Inc., priority 2007, dated 2012).
# Experiments:
# Format in all cases: biochemical
# [1] = biological target: T1, ST3Gal-II (Rattus norvegicus, UniProt Q11205); test: Effect of O-glycans with sialyl or sulfo substituents on reverse sialylation from [9-3H] sialyl fetuin; conditions: 6.0 mM compound, [9-3H] sialyl fetuin donor, 20 mM 5′-CMP, 20 h
# T1 construct: purchased Calbiochem
# T1 sequence (Q11205 1-350): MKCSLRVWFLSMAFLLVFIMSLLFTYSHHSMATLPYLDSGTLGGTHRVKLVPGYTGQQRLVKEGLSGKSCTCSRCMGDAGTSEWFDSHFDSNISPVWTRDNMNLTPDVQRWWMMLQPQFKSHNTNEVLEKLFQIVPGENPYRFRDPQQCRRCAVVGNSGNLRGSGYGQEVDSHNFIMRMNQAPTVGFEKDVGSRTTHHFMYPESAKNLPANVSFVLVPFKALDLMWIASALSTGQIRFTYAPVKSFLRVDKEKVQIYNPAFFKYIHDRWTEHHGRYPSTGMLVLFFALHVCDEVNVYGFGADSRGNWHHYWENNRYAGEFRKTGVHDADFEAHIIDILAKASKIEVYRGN
# Procedure: FIG. 6. Effect of sialyl or sulfo substituents in O-glycan chain on the reverse sialylation by ST3Gal-II. Incubation mixtures (600 μl) contained [9-^3H] sialyl fetuin (5 mg), 200 mM NaCa Codylate pH 6.0, 20 mM 5′-CMP, […] ST3Gal-II and the following: a. 6.0 mM NeuAcα2,3Galβ1,4GlcNAcβ1,6 (Galβ1,3)GalNAcα-O-Bn, b. 6.0 mM 3-O-SulfoGalβ1,4GlcNAcβ1,6(Galβ1,3)GalNAcα-O-Bn or c. 6.0 mM Galβ1,6GlcNAcβ1,6(3-O-Sulphoβ1,3Gal)GalNAcα-O-Bn along with 50 mU ST3Gal-III. Products were fractionated using Biogel P2 column after 20 h at 37° C. Unused [9-^3H] sialyl fetuin (peak 1) appears prior to [9-^3H]Sialyl product from acceptor (peak 2) and CMP-[9-^3H]NeuAc (peak 3). Product identities were verified using LC-MS as indicated by molecular weights noted in the panels.
# For these studies, [9-^3H] sialyl fetuin was prepared by the action of ST3Gal-II on fetuin in the presence of CMP-[9-^3H]NeuAc. Radioactivity incorporation into the O-glycan chain of the glycoprotein was confirmed by treating the labeled molecule with alkaline borohyrdride (1MNaBH4 in 0.1MNaOH at 45° C. for 24 hours) and detecting the released radioactivity. During these studies, sialyl fetuin was incubated with 5′-CMP, one of the above mentioned compounds, and sialyltransferase for 20 hours, and the product formed was eluted using a Biogel P2 column. […] Consequently no radioactivity was associated with the acceptor. […] The use of distinct compounds to differentially alter reverse and forward sialylation function further supports the concept that ST3Gal-II may have more than one catalytic function.
# [2] = biological target: T1, ST3Gal-II; test: Reverse sialylation equilibrium constant (Keq) and 5′-CMP dose dependence; conditions: for Keq (dimensionless units), reverse sialylation equilibrium constant: acceptor 5′-CMP
# Procedure: FIG. 2. Equilibrium constant. a. Reversible sialyltransferase activity at increasing concentration of 5′-CMP. 0.15 mM of donor [9-^3H]NeuAcα2,3Galβ1,3(4-FGlcNAcβ1,6)GalNAcα-O-Bn [9-^3H[2]] was incubated with varying concentrations of 5′-CMP and 0.15 mU ST3Gal-II under conditions described in FIG. 1 for 2 hours. The consumption of the [9-^3H]NeuAc benzyl glycoside donor was measured by subjecting the incubation mixture to Sep-Pak C18 fractionation, which binds the donor and not CMP-[9-^3H]NeuAc. The reaction proceeded to ½ the maximum extent at 80 μM 5′-CMP. b. Equilibrium constant Keq (=0.35) calculated for data in panel a. c. Varying concentrations of 5′-CMP was sialylated with ST3Gal-II (2.0 mU) using either 0.15 mM (panel c) or 1.5 mM (not shown) sialyl donor [9-^3H]NeuAcα2,3Galβ1,3GalNAcβ1,3Galα-O-Me [9-^3H[3]] for 4 hours. The product CMP-[9-^3H]NeuAc and the unused [9-^3H[3]] were separated and quantitated by Dowex-1-Formate method. d. Equilibrium constant, Keq=98.9. Diamonds denote data from 1.5 mM runs while data from 0.15 mM runs are depicted by squares.
# a) Biogel P2 chromatography: A Biogel P2 column (Fine Mesh; 1.0×116.0 cm) was used with 0.1 M pyridine acetate (pH5.4) as the eluent at room temperature. […] Fractions of 1.0 ml were collected. The bound material was then eluted with 0.5M GlcNAc or 0.2M Gal in the same buffer. […] Calculation of equilibrium constant, Keq: Equilibrium constant was calculated for selected reversible bimolecular reactions that are denoted by:
# [formula] Here, [9-^3H]D* denotes the radiolabeled donor and D′ is the donor after removal of sialic acid. Similarly, A and [9-^3H]A* denote the acceptor before and after incorporation of NeuAc. In each run, unreacted [9-^3H]D* and product [9-^3H] A* are measured using radioactivity measurements. The equilibrium constant (Keq=kreverse/kforward, dimensionless units) are then determined using the following equation, where terms in square brackets denote concentrations:
# [formula] [D0] and [A0] are initial donor and acceptor concentrations. A plot of [D*]/([D0]−[D*]) versus [A*]/([A0]−[A*]) yields Keq from slope data. Keq<1 implies that the forward reaction is favored and the reaction proceeds to the right side to form [9-^3H]A* efficiently. Liquid Chromatography Coupled with Tandem Mass Spectrometry (LC/MS/MS)
# Similar results were observed upon increasing concentrations of 5′-CMP when [9-^3H]NeuAcα2,3Galβ1,3(4-FGlcNAcβ1,6) GalNAcα-O-Bn [9-^3H[2]] was donor (FIG. 2a, b). The concentration of 5′-CMP that mediated half-maximal transfer of [9-^3H]NeuAc was 80 μM. The bimolecular equilibrium constant (Keq) for this reaction was 0.35 (dimensionless units, Table I). Indeed, the Keq varied depending on the donor and it was 98.9 when the donor was based on the globo glycolipid, [9-^3H]NeuAcα2,3Galβ1,3GalNAcβ1,3 Gala-O-Me [[9-^3H] [3]] (FIG. 2c, d). Upon comparing and [3], it is apparent that reverse sialylation proceeds more effectively in the case of [2]. To further confirm the above estimates of Keq for core-2 based structures, we also calculated this parameter for our previously published data where [9-^3H]CMP-NeuAc was donor and mucin core-2 tetrasaccharide Galβ1,4GlcNAcβ1,6(Galβ1,3)GalNAcα-O-Bn was acceptor. In this case, Keq measured with respect to the rate of mucin core-2 sialylation was 5.55 (data not shown), which translates to a reverse sialylation Keq of 0.18.
# [3] = biological target: T1, ST3Gal-II; test: Serial transfer of sialic acid from donor via 5′-CMP to acceptors (scheme-II)
# Procedure: FIG. 3. Serial transfer of sialic acid using scheme-II was followed at increasing concentrations of acceptor D-Fucβ1,3GalNAcα-O-Bn. The donor used was either: i) 0.15 mM [9-^3H]CMP-NeuAc; or, ii) 0.15 mM [9-^3H]NeuAcα2,3Galβ1,3(4-FGlcNAcβ1,6)GalNAcα-O-Bn [9-^3H [2]] in the presence of 2.0 mM 5′-CMP, or iii) [9-^3H]NeuAcα2,3Galβ1,3(6-O-SulfoGlcNAcβ1,6)GalNAcα-O—Al [[9-^3H] [4]] in the presence of 2.0 mM 5′-CMP. In runs where [9-^3H [2]] was donor since both and [2] bind C18 cartridges, control runs were performed in the absence of D-Fucβ1,3GalNAcα-O-Bn to estimate the amount of [9-^3H]CMP-NeuAc formed under the experimental conditions. 80-85% of the radioactivity was transferred to CMP-NeuAc in these runs. The amount of CMP-NeuAc remaining in runs with was then subtracted from CMP-NeuAc radioactivity in the control run to determine the amount of sialylated. To complement this run, studies were also performed with [[9-^3H] […] In these runs, the amount of sialylated was determined by measuring radioactivity retained in the C18-cartridge. a. Equilibrium constant was 5.55 when CMP-[9-^3H]NeuAc was donor. b. ˜10-fold lower acceptor concentration was required for similar extents of reaction when CMP-[9-^3H]NeuAc was donor, compared to core-2 based donors and [4].
# We tested the possibility that CMP-NeuAc formed above may be available for transfer to other acceptors using ST3Gal-II (scheme-II, FIG. 3). For this, three radiolabeled donors were prepared using methods described above: two were based on the mucin Core-2 structure ([[9-^3H] [1]] and [9-^3H]NeuAcα2,3Galβ1,3(6-O-SulfoGlcNAcβ1,6)GalNAcα-O—Al [[9-^3H] [4]]) while the third was based on the Globo glycolipid ([9-^3H] [3]). The transfer of [9-^3H]NeuAc from these sialylated donors to various T-hapten (Galβ1,3GalNAcα) and mucin core2-based glycoside acceptors in the presence of 5′-CMP and ST3Gal-II was assessed (Table III). All three […] of ST3Gal-II ([1], [3] and [4]) allowed formation of CMP-[9-^3H]NeuAc, and a diverse array of products.
# The transfer of [9-^3H]NeuAc from [[9-^3H][1]] to D-Fucβ1,3GalNAcα-O-Bn in the presence of 5′-CMP and ST3Gal-II increased linearly in the first two hours and it reached saturation at 4 hours (FIG. 12), and thus the data in Table III (4 hours time point) represent equilibrium conditions. […] Further, diverse sialylated products can be formed using the same synthetic sialylated donor.
# In order to compare the efficiency of individual reactions of scheme II, independent runs were performed where either 0.15 mM [9-^3H]CMP-NeuAc, 0.15 mM [9-^3H] [2] or 0.15 mM [9-^3H] [4] was the donor, and [5] was the acceptor (FIG. 3). 2 mM 5′-CMP was added in runs with core-2 donors and [4], and thus reverse sialylation of these molecules was feasible. Keq for transfer of sialic acid from CMP-NeuAc to [5] was 5.55 (FIG. 3a). […] (˜6 mM) or [9-^3H[4]] (˜6 mM). Thus, while the two-step mechanism results in lower conversion than CMP-NeuAc alone, the transfer of NeuAc still takes place at an appreciable rate.
molecule,measurement,setting,value
"NeuAcα2,3Galβ1,4GlcNAcβ1,6(Galβ1,3)GalNAcα-O-Bn",Effect on reverse sialylation (CMP-NeuAc formation and product formation),[1],prevents product formation without inhibiting CMP-NeuAc formation
"CC(=O)N[C@H]1[C@H](OC[C@H]2O[C@H](OCc3ccccc3)[C@H](NC(C)=O)[C@@H](O[C@@H]3O[C@H](CO)[C@H](O)[C@H](O)[C@H]3O)[C@H]2O)O[C@H](CO)[C@@H](O[C@@H]2O[C@H](CO)[C@H](O)[C@H](O)[C@H]2O)[C@@H]1O [[10], Galβ1,4GlcNAcβ1,6(Galβ1,3)GalNAcα-O-Bn]",Keq measured with respect to the rate of mucin core-2 sialylation,"[2]; [9-3H]CMP-NeuAc donor, mucin core-2 tetrasaccharide acceptor, calculated for previously published data",5.55
same,"Keq (dimensionless units), reverse sialylation equilibrium constant","[2]; translated from Keq 5.55 of mucin core-2 sialylation, previously published data",0.18
same,"Incorporation of [9-3H]NeuAc from donor [1], percent of the CPM incorporated into [5]","[3]; acceptor 2.5 mM, 150 μM donor [1], 1 mM 5′-CMP, 4 hours",20.5%
same,"Incorporation of [9-3H]NeuAc from donor [4], percent of the CPM incorporated into [5]","[3]; acceptor 2.5 mM, 150 μM donor [4], 1 mM 5′-CMP, 4 hours",8.4%
"CC(=O)N[C@H]1[C@H](OC[C@H]2O[C@H](OCc3ccccc3)[C@H](NC(C)=O)[C@@H](O[C@@H]3O[C@H](CO)[C@H](O)[C@H](O)[C@H]3O)[C@H]2O)O[C@H](CO)[C@@H](O[C@@H]2O[C@H](CO)[C@H](O)[C@H](OS(=O)(=O)O)[C@H]2O)[C@@H]1O [3-O-SulfoGalβ1,4GlcNAcβ1,6(Galβ1,3)GalNAcα-O-Bn]",Effect on reverse sialylation (CMP-NeuAc formation and product formation),[1],inhibits formation of the intermediate CMP-NeuAc
"CC(=O)N[C@H]1[C@H](OC[C@H]2O[C@H](OCc3ccccc3)[C@H](NC(C)=O)[C@@H](O[C@@H]3O[C@H](CO)[C@H](O)[C@H](OS(=O)(=O)O)[C@H]3O)[C@H]2O)O[C@H](CO)[C@@H](O[C@@H]2O[C@H](CO)[C@H](O)[C@H](O)[C@H]2O)[C@@H]1O [Galβ1,4GlcNAcβ1,6(3-O-SulfoGalβ1,3)GalNAcα-O-Bn]",Effect on reverse sialylation (CMP-NeuAc formation and product formation),[1],permits both the formation of CMP-NeuAc from 5′-CMP
"[9-^3H]NeuAcα2,3Galβ1,3(4-FGlcNAcβ1,6)GalNAcα-O-Bn [[2]]","Keq (dimensionless units), reverse sialylation equilibrium constant",[2]; sialylated donor,0.35
same,amount of acceptor [5] required for comparable transfer,"[3]; 0.15 mM donor, 2 mM 5′-CMP with core-2 donors",~6 mM
same,radioactivity transferred to CMP-NeuAc,"[3]; control runs without acceptor [5], 2.0 mM 5′-CMP",80-85%
